Test results published in PMC6505672, “Conformational change of Sos-derived proline-rich peptide upon binding Grb2 N-terminal SH3 domain probed by NMR” (Scientific Reports, 2013).
Values joined by “and” are separate entries in the source; they are usually repeats but may differ in a detail not shown here. Equal entries are not always repeated.

How the values were obtained:
[1] = design: method as in earlier work; conditions: free state, cited from earlier work
[2] = 13Cα CPMG relaxation dispersion of free VPP peptide (Grb2 nSH3 absent); assay type: physicochemical; conditions: 25°C
Procedure: The global exchange parameters of the exchange rate, kex; the fractional population of the minor state, Pb were calculated from the dispersion curves of Val5 and Arg8. Then, the chemical shift difference between two states, Δω; the target function of fitting error, χ^2; and the nonexchangeable contribution of R2,eff, R2,0 for each residue were calculated using the global exchange parameters based on a two-state exchange model. […] The kex values were slightly larger than the Δω values, indicating a fast or intermediate exchange process on the chemical shift time scale. The exchange rate kex is defined as kex = kon[P] + koff, where [P] is the concentration of the protein. […]
Two-dimensional ^1H-^13C correlated spectra were collected as series of data sets with CPMG frequencies (νCPMG) of 30, 60, 120, 180, 300, 450, and 600 Hz. […] Spectra were recorded as 62 × 600 complex points with a 2.6-s repetition delay and 32 scans for each increment. […]
Peak intensities of the ^13Cα relaxation dispersion data were quantified using the Sparky program. The transverse relaxation constant, R2,eff, for each νCPMG frequency was calculated as R2,eff = −ln(I(νCPMG)/I0)/Trelax, where I(νCPMG) is the peak intensity obtained for a given value of νCPMG and I0 is the peak intensity obtained when the CPMG block is omitted. […]

[3] = target: T1, Grb2 N-terminal SH3 (nSH3) domain (Homo sapiens, UniProt P62993); experiment: 13Cα CPMG relaxation dispersion of VPP peptide with Grb2 nSH3; assay type: binding
T1 construct: The plasmid to express the Grb2 nSH3 domain (residues 1–57) was constructed by using a pGEX-6P expression vector; GST (N, cleaved yes); made in house; host or cells: E. coli BL21 (DE3)
Procedure: Non-labelled VPP (10 mM) peptide mixed with 0.25 mM Grb2 nSH3 dissolved in ^2H2O solvent was subjected to ^13Cα relaxation dispersion experiments.
The global exchange parameters of the exchange rate, kex; the fractional population of the minor state, Pb were calculated from the dispersion curves of Val5 and Arg8. Then, the chemical shift difference between two states, Δω; the target function of fitting error, χ^2; and the nonexchangeable contribution of R2,eff, R2,0 for each residue were calculated using the global exchange parameters based on a two-state exchange model. […] The exchange rate kex is defined as kex = kon[P] + koff, where [P] is the concentration of the protein. In this experimental condition, [P] is assumed to be zero because the concentration of the ligand is much higher than that of the protein. Thus, kex = koff. The affinity of the ligand to the protein, i.e., Kd, is defined as Kd = koff/kon. If kon is diffusion-controlled, kon ~ 10^8 M^−1s^−1. […] However, as reported by Lundström et al. Cα and Cβ atoms of valine are simultaneously incorporated to the final products from [^13C-2]-glucose as a sole carbon source by using an E.coli expression system. Thus, isolated ^13Cα-selective labelled valine residues cannot be prepared for this experimental purpose.
Two-dimensional ^1H-^13C correlated spectra were collected as series of data sets with CPMG frequencies (νCPMG) of 30, 60, 120, 180, 300, 450, and 600 Hz. The constant-time relaxation delay Trelax was set to 66.7 ms. Spectra were recorded as 62 × 600 complex points with a 2.6-s repetition delay and 32 scans for each increment. The total experimental time was 24 h for both 600 and 500 MHz spectrometers.
Peak intensities of the ^13Cα relaxation dispersion data were quantified using the Sparky program. The transverse relaxation constant, R2,eff, for each νCPMG frequency was calculated as R2,eff = −ln(I(νCPMG)/I0)/Trelax, where I(νCPMG) is the peak intensity obtained for a given value of νCPMG and I0 is the peak intensity obtained when the CPMG block is omitted. The CPMG dispersion curves were fitted numerically as a two-state exchange model using an in-house program described elsewhere. The fitting calculation extracted the following terms as the global parameters: the exchange rate, kex; the fractional population of the minor state, Pb; and the residue specific parameters, including the magnitude of the chemical shift difference between two states, Δω; the target function of fitting error, χ^2; and the nonexchangeable contribution of R2,eff, R2,0.

[4] = target: T1, Grb2 N-terminal SH3 (nSH3) domain; experiment: Minor (cis Xaa-Pro) peaks in 1H-13Cα HSQC, Grb2 nSH3-bound state; assay type: physicochemical; conditions: PBS in 2H2O, 25°C
Procedure: The relative intensities of the minor peaks with respect to the major peaks for these residues were 10% for Val1, 3% for Pro2, 14% for Pro4, 10% for Val5, and 6% for Pro6.
The buffer system for NMR experiments was PBS in ^2H2O. […] Data were processed using the NMRPipe/NMRDraw software package. Peak picking and spectral analysis were performed using the Sparky program. Conformational analyses based on chemical shifts were conducted using the Random Coil Index (RCI) program[19] on the web server (http://randomcoilindex.com/).

[5] = tested on: Grb2 nSH3; conditions: single alanine substitution, ITC; cited from earlier work
[6] = target: Sos-derived VPP peptide (Homo sapiens) (UniProt Q07889); conditions: cited from earlier work

T1 sequence (P62993 1-57): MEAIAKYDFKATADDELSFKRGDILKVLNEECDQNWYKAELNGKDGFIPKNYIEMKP
Sequence of Grb2 nSH3 (from UniProt P62993) (P62993 1-58): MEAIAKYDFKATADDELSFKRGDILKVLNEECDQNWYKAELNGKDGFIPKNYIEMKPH

Row | population of the minor state (Pb), in percent ([3]; 10 mM peptide, 0.25 mM Grb2 nSH3, 25°C, bound population expected from sample 2.5%) | exchange rate, kex ([3]; global fit of Val5 and Arg8, two-state exchange model, 10 mM VPP peptide, 0.25 mM Grb2 nSH3, PBS in 2H2O, 25°C, 11.7 and 14.1 T, kex = koff assumed) | fractional population of the minor state, Pb ([3]; global fit of Val5 and Arg8, two-state model, 10 mM peptide, 0.25 mM Grb2 nSH3, 25°C, as fraction) | Δω ([3]; range over all residues, 13Cα, relaxation dispersion) | Δω ([3]; residue P3, 13Cα shift difference between two states from relaxation dispersion fit, 25°C) | Δω ([3]; residue R8, 13Cα shift difference between two states from relaxation dispersion fit, 25°C) | Δω ([3]; residue R9, 13Cα shift difference between two states from relaxation dispersion fit, 25°C) | Δω ([3]; residue R10, 13Cα shift difference between two states from relaxation dispersion fit, 25°C) | Δω ([3]; residue V5, 13Cα shift difference between two states from relaxation dispersion fit, 25°C) | Δω ([3]; residues P4/P7 (overlapped), 13Cα shift difference between two states from relaxation dispersion fit, 25°C) | minor (cis) peaks in bound state [4] | Molecule | PPII helix structure ([1]; NMR and circular dichroism) | minor (cis) conformation [1] | relaxation dispersion curves [2] | significant relaxation dispersion ([3]; presence of Grb2 nSH3, 11.7 and 14.1 T, 25°C) | residues critical for interaction with Grb2 nSH3 [5] | Kd [6]
1 | ~ 2.6% | 1037.87 s⁻¹ | 0.026 | 0–1.5 ppm | 0.09 ± 0.18 ppm | 1.53 ppm and 1.53 ± 0.42 ppm | 0.23 ± 0.20 ppm | 0.13 ± 0.17 ppm | 1.47 ppm and 1.47 ± 0.52 ppm | 0.00 ± 0.16 ppm | lack of minor peaks in the bound state | CC(C)C[C@H](NC(=O)[C@@H]1CCCN1C(=O)CN)C(=O)NCC(=O)N[C@@H](CO)C(=O)N[C@H](C(=O)N1CCC[C@H]1C(=O)N1CCC[C@H]1C(=O)N1CCC[C@H]1C(=O)N[C@H](C(=O)N1CCC[C@H]1C(=O)N1CCC[C@H]1C(=O)N[C@@H](CCCNC(=N)N)C(=O)N[C@@H](CCCNC(=N)N)C(=O)N[C@@H](CCCNC(=N)N)C(=O)O)C(C)C)C(C)C [VPP peptide] | ~ 60% | 9% | the dispersion curves were flat | Significant dispersion was only observed for Val5 and Arg8 and not for the other residues | Pro3, Val5, Pro6, and Arg8 of the VPP peptide are critical for interaction with Grb2 nSH3 | –
2 | – | – | – | – | – | – | – | – | – | – | – | Grb2 nSH3 (from UniProt P62993) | – | – | – | – | – | 3.5 µM
